Experimental findings from patent EP0390718A1, “Process for preparing new 1-diphenylmethylpiperidine derivatives” (FABRICA ESPANOLA DE PRODUCTOS QUIMICOS Y FARMACEUTICOS, …, priority 1989, dated 1990) are described below.

Data set [1] concerns the target guinea pig isolated ileum contractions caused by histamine (Cavia porcellus, UniProt P31389). In words: guinea pig isolated ileum contractions caused by histamine (in vitro antihistaminic activity). Type of data set: cell-based. Particulars: drug concentration inhibiting 50% of the response to histamine; 10 minutes of incubation with each concentration; Tyrode solution at 37°C; unit M only printed in method b12 (10⁻⁸-10⁻⁵ M); read-out: CI50 (the source's name).

The subject of another data set is Swiss male mice. In words: preliminary study of the main pharmacologic effects, observation of symptoms and reflexes in mice. It is filed as in vivo. Particulars: 300 mg/kg. On the procedure:
A preliminary study has been made of the main pharmacologic effects using Swiss male mice distributed in groups of four animals; each group was administered one of the products in doses of 300 mg/kg and the animals began to be observed, logging the time when symptoms appeared or given reflexes decreased: spontaneous activity, appearance of stereotype, trembling, convulsions, abnormal body position, loss of reflexes, extent of palpebral aperture, salivation, pyloerection, hypothermia, lachrymation or change in skin colour; observation lasted for 30 minutes and was repeated 1, 2, 3, 4 and 24 hours after treatment; the reference compound chosen was a well-known antiallergic, ketotyphene.

[2] abbreviates: Swiss male mice, groups of four, observed 30 minutes and 1, 2, 3, 4 and 24 hours after treatment.

Sequence of guinea pig isolated ileum contractions caused by histamine (P31389 whole entry): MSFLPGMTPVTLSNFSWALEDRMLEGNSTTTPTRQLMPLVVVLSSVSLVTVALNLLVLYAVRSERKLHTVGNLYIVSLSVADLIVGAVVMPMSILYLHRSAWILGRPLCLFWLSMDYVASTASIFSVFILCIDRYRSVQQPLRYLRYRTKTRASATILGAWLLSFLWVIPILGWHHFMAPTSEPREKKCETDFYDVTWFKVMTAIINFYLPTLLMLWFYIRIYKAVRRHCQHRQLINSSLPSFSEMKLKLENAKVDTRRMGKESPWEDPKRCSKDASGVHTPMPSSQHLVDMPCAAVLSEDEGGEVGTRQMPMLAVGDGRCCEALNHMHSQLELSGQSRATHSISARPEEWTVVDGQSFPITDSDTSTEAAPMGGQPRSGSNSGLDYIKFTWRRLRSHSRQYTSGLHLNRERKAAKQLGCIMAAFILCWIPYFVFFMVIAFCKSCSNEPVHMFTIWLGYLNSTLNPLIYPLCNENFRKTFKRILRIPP

For the compound “1-[(4-chlorophenyl)methyl]-N-[1-(diphenylmethyl)piperidine-4-yl]-2-amino-1 H-benzimidazol [Example 4]”, in data set [1], the IC50 was 63 nM. Moreover, the “Maximum effect observed/No. of animals Decreased spontaneous activity” value in the data set with Swiss male mice (setting [2]) worked out at 0.

In the case of `CN1CCC(=C2c3ccccc3CC(=O)c3sccc32)CC1` [Ketotiphene], in the data set with Swiss male mice (setting [2]), the “Maximum effect observed/No. of animals Body reflex loss” value is on record as 1/4 and the “Maximum effect observed/No. of animals Decreased spontaneous activity” value is 2/4. Besides, in the data set on Swiss male mice (mouse, in vivo), the “Maximum effect observed/No. of animals Hearing reflex loss” value was “-”, the “Maximum effect observed/No. of animals Hypothermia” value is 4/4 and the “Maximum effect observed/No. of animals Palpebral potosis” value was 1/4.

Consider “N-[(1-diphenylmethyl)piperidine-4-yl]-1-[(4-fluorophenyl)methyl]-2-amino-1 H-benzimidazol [Example 5]”, for which the IC50 in data set [1] amounted to 56 nM. Also, in the data set on Swiss male mice (setting [2]), the “Maximum effect observed/No. of animals Decreased spontaneous activity” value was determined as 0.
